Reference: US11047861B2, “Cellular assays with a molecular endpoint measured by SAMDI mass spectrometry” (NORTHWESTERN UNIVERSITY, priority 2015, dated 2021)
pIC50: −log10 of the molar value.

What was measured:
[1] = test system: protein tyrosine phosphatase (PTP); experiment: TCAL-SAMDI assay of PTP activity, inhibitors applied to cells cultured on the monolayer; format: cell-based
Procedure: HeLa cells and MDA-MB-231 cells were obtained from ATCC and cultured in αMEM (for HeLa cells) or high-glucose DMEM (for MDA-MB-231 cells) medium supplemented with 10% fetal bovine serum, glutamax, penicillin and streptomycin. All cells were cultured in a humidified incubator at 37° C. and CO2. Cells were trypsinized and suspended in media, and the average number of cells per μL was counted using a hemocytometer and Countess automated cell counter (Life Technologies), and cell concentrations were adjusted to seed the desired number of cells per spot in 3 μL media. Cells were cultured on the monolayers presenting RGD and peptide substrates on steel plates or glass slides for two hours under standard growth conditions. For PTP activity assays, cells were cultured for two hours before addition of inhibitors, if any. […] A 30 mg/mL solution of 2,4,6-trihydroxyacetophenone in acetone was delivered to each spot on the array and the surfaces were analyzed using an AB Sciex 5800 MALDI TOF/TOF instrument in positive reflector mode. The area under the curves for the [M+H]^+ peaks of disulfides was measured with the Data Explorer software (AB Sciex). […]
MDA-MB-231 cells were seeded at 75 cells per spot on monolayers presenting phosphatase peptide substrates and cyclic RGD as described above. […] IC50 values and curves were determined using GraphPad prism software.

[2] = test system: protein tyrosine phosphatase (PTP); experiment: SAMDI assay of PTP activity in cell lysate treated with inhibitor and applied to the monolayer; format: biochemical; settings: treatment of MDA-MB-231 cell lysate (rather than cells), read-out: PTP inhibition, IC50
Procedure: MDA-MB-231 cells were lysed using the lysis buffer containing protease inhibitor described above to achieve the equivalent of 75 cells per 1.5 μL, after mixing with inhibitor solutions. Inhibitor solutions in lysis buffer at concentrations ranging from 0 to 640 μM were added to the lysate and 1.5 μL of the mixture was spotted on monolayers presenting cyclic RGD and phosphatase substrate. The reaction was carried out for 1 hour at 37° C. in a humidified chamber. To evaluate dose-response inhibition under standard culture conditions, MDA-MB-231 cells were plated on a 96-well plate at a density of 6,400 cells per well and cultured for two hours. Culture medium containing inhibitors at final concentrations ranging from 0 to 300 μM and 1% DMSO were delivered to each well and culture proceeded for another two hours. The mixture containing media and inhibitor was removed from each well and centrifuged. Lysis buffer containing protease inhibitor was applied to each well in the plate and incubated for 10 minutes at room temperature. The lysate was collected and added to the corresponding cell pellet for each inhibitor concentration sample. […] Protein concentrations were measured using a BCA assay (Santa Cruz Biotechnology), following manufacturer instructions. […] IC50 values and curves were determined using GraphPad prism software.

Row | SMILES | PTP inhibition ([1]; treatment of cells, inhibitor concentration up to 160 μM) | pIC50 [2] | pIC50 ([1]; treatment of cultured MDA-MB-231 cells on monolayer for two hours, then lysis in place, read-out: inhibition of PTP activity, IC50)
1 | O=C1C(=NNc2ccc(S(=O)(=O)O)cc2)C(c2ccc([N+](=O)[O-])cc2)=NN1c1ccccc1 [PHPS1] | did not show PTP inhibition | 4.12 | 
2 | O=C(CBr)c1ccc(O)cc1 [PTPI-I] |  | 4.08 | 4.85
